In patent publication US4400394A, “Benzylidene derivatives” (priority 1975, dated 1983):

Columns and labels:
[1] = Acute toxicity in mice (LD 50, intraperitoneal); settings: mouse, in vivo, ip, CD1 mice, deaths recorded 48 hours after administration, determined graphically
Description: I. Acute toxicity in mice
The compounds of the invention and the reference substances were administered intraperitoneally to CD1 mice. The 50% lethal dose (LD 50) was determined graphically. The number of dead animals 48 hours after intraperitoneal administration was recorded.

[2] = test system: convulsions induced by bicuculline in mice; assay: Antagonism to convulsions induced by bicuculline in mice (anti-bicuculline activity); type: in vivo; settings: Mus musculus, ip, intraperitoneal, dose which protects 50% of the animals against the effect of bicuculline, read-out: Anti-bicuculline activity, AD 50 (intraperitoneal administration)
Description: II. GABA-animetic activity of the compounds (I)
The experimental method of Curtis, D. R., et al., Brain Res., 1971, 33, 57 and Perez de la Mora, N., Biochem. Pharmacol., 1973, 22, 2,635, was used.
The 50% active doses (AD 50), namely the doses which protect 50% of the animals against the effect of bicuculline, were evaluated for the substances studied.

epilepsy = settings: cited from earlier work
[3] = oral or parenteral administration; cited from earlier work

Row | Compound | LD50 at 48 h [1] [mg/kg] | ED50 [2] [mg/kg] | side-effects (in words) (epilepsy; administration of GABA) | use in epilepsy (in words) (epilepsy; some cases of epilepsy, very large quantities needed) | crossing of the blood-brain barrier (in words) [3]
1 | NC(=O)CCCN=C(c1ccccc1)c1cc(F)ccc1O [75,167] | > 2000 | 100 |  |  | 
2 | O=C(CCCN=C(c1ccccc1)c1cc(F)ccc1O)NC1CC1 [76,010] | 1250 | 250 |  |  | 
3 | O=C(O)CCCCN=C(c1ccccc1)c1cc(F)ccc1O [SL 75,106] | 600 | 120 |  |  | 
4 | O=C(O)CCCN=C(c1ccccc1O)c1ccccc1Cl [75,078] | 350 | 110 |  |  | 
5 | O=C(O)CCCN=C(c1ccccc1)c1cc(Cl)ccc1O [75,005] | 350 | 120 |  |  | 
6 | NC(=O)CCCN=C(c1ccc(Cl)cc1)c1cc(F)ccc1O [76,002, 4-[(4-Chlorophenyl)-5-fluoro-2-hydroxy-benzylidenyl]-amino-butyramide] | 900 | 65 |  |  | 
7 | O=C(O)CCCN=C(c1cc(F)ccc1O)c1ccccc1Cl [75,027] | 375 | 125 |  |  | 
8 | Cc1ccccc1C(=NCCCC(=O)O)c1cc(F)ccc1O [75,029] | 475 | 250 |  |  | 
9 | O=C(O)CCN=C(c1ccccc1)c1ccccc1O [75,019] | 830 | 425 |  |  | 
10 | O=C(O)CCCN=C(c1ccccc1O)c1ccccc1F [75,046] | 675 | 225 |  |  | 
11 | NC(=O)CN=C(c1ccccc1)c1cc(F)ccc1O [75,083] | 650 | 175 |  |  | 
12 | NCCCC(=O)O [GABA, γ-Aminobutyric acid] | > 4000 | > 4000 | substantial sideeffects (hypotension, bradycardia, and sedation) | used with success in some cases of epilepsy | does not easily cross the blood-brain barrier
13 | NC(=O)CN=C(c1ccccc1)c1ccccc1O [75,037] | 1350 | 20 |  |  | 
14 | O=C(O)CCCN=C(c1cccc(F)c1)c1cc(F)ccc1O [75,044, Sodium 4-N-[α-(3-fluorophenyl)-5-fluoro-2-hydroxy-benzylidenyl]-amino-butyrate] | 850 | 250 |  |  | 
15 | O=C(O)CCCN=C(c1ccc(Cl)cc1)c1cc(F)ccc1O [75,102] | 500 | 65 |  |  | 
16 | O=C(O)CCCCCN=C(c1ccccc1)c1ccccc1O [75,074] | 750 | 300 |  |  | 
17 | COc1ccc(C(=NCCCC(=O)O)c2ccccc2)c(O)c1 [75,107] | 950 | 450 |  |  | 
18 | COc1ccc(C(=NCCCC(=O)O)c2ccc(Cl)cc2)c(O)c1 [75,118] | 525 | 225 |  |  | 
19 | Cc1ccc(O)c(C(=NCCCC(=O)O)c2ccccc2Cl)c1 [75,136] | 350 | 110 |  |  | 
20 | CN(C)C(=O)CCCN=C(c1ccccc1)c1cc(F)ccc1O [76,022] | 1400 | 350 |  |  | 
21 | O=C(O)CCCCCCCCCCN=C(c1ccccc1)c1cc(F)ccc1O [75,054] | 300 | 130 |  |  | 

Row | Compound | LD50 at 48 h [1] [mg/kg] | ED50 [2] [mg/kg] | side-effects (in words) (epilepsy; administration of GABA) | use in epilepsy (in words) (epilepsy; some cases of epilepsy, very large quantities needed) | crossing of the blood-brain barrier (in words) [3]
22 | CCOC(=O)CCCNC(=O)CCCN=C(c1ccccc1)c1cc(F)ccc1O [75,168] | 975 | 500 |  |  | 
23 | CC(C)NC(=O)CCCN=C(c1ccccc1)c1cc(F)ccc1O [76,031] | > 2000 | 500 |  |  | 
24 | O=C(CCCN=C(c1ccccc1)c1cc(F)ccc1O)NC1CCCC1 [76,011] | > 2000 | 365 |  |  | 
25 | CCCC(CCN=C(c1ccccc1)c1cc(F)ccc1O)C(=O)O (stereo not drawn) [76,085] | 340 | 170 |  |  | 
26 | Cc1ccc(O)c(C(=NCCCC(=O)O)c2ccccc2F)c1 [75,053] | 600 | 125 |  |  | 
27 | O=C(O)CCCN=C(c1ccccc1)c1cc(F)ccc1O [75,010, Sodium 4-N-(α-phenyl-5-fluoro-2-hydroxy-benzylidenyl)-amino-butyrate] | 600 | 125 |  |  | 
28 | O=C(O)CCCN=C(c1ccccc1)c1ccccc1O [SL 74,227] | 975 | 500 |  |  | 
29 | O=C(CCCN=C(c1ccccc1)c1cc(F)ccc1O)NC1CCC1 [76,030] | > 2000 | 200 |  |  | 
30 | NC(=O)CCCN=C(c1cc(F)ccc1O)c1ccccc1Cl [76,086] | 235 | 50 |  |  | 
31 | NC(=O)CCCN=C(c1ccc(F)cc1)c1cc(F)ccc1O [75,166] | > 2000 | 180 |  |  | 
32 | O=C(CCCN=C(c1ccccc1)c1cc(F)ccc1O)NCc1ccccc1 [76,013] | > 2000 | 200 |  |  | 
33 | O=C(O)CCCCN=C(c1ccccc1)c1ccccc1O [75,006] | 700 | 250 |  |  | 
34 | NC(=O)CCCN=C(c1cccc(Cl)c1)c1cc(F)ccc1O [76,091] | 600 | 300 |  |  | 
35 | O=C(O)CCCN=C(c1cc(F)ccc1O)c1ccccc1F [75,017] | 525 | 175 |  |  | 
36 | O=C(O)CCCCCCCCCCN=C(c1ccccc1)c1ccccc1O [75,075, Sodium 11-N-(α-phenyl-2-hydroxy-benzylidenyl)-amino-undecamoate] | 210 | 100 |  |  | 
37 | NC(=O)CN1CCCC1=O [PIRACETAM, reference compound] | > 4000 | 500 |  |  | 
38 | CCCCN(CCCC)C(=O)CCCN=C(c1ccccc1)c1cc(F)ccc1O [76,023] | 1700 | 300 |  |  | 
39 | O=C(CCCN=C(c1ccccc1)c1cc(F)ccc1O)Nc1ccccc1 [76,012] | > 2000 | 500 |  |  | 
40 | O=C(O)CCCN=C(c1ccc(F)cc1)c1cc(F)ccc1O [75,045, Sodium 4-N-[α-(4-fluorophenyl)-5-fluoro-2-hydroxy-benzylidenyl]-amino-butyrate] | 650 | 125 |  |  | 
41 | O=C(O)CCCCCN=C(c1ccccc1)c1cc(F)ccc1O [75,059] | 800 | 200 |  |  | 
42 | O=C(O)CCCCCCCN=C(c1ccccc1)c1ccccc1O [75,100] | 600 | 300 |  |  | 
